Among the data in ChEMBL document CHEMBL1671758, “Environmental study of azole-resistant Aspergillus fumigatus and other aspergilli in Austria, Denmark, and Spain” (2010) are MIC, inhibition and Activity values, retold here.

What is called MIC is the smallest concentration in the dilution series that meets the test's criterion for growth inhibition. Higher therefore signals a less susceptible organism.

In brackets after ≈: the same amount, converted by molar mass. Activity calls are given as the source filed them.

One assay deals with Aspergillus nidulans. In words: Antifungal activity against Aspergillus nidulans isolate. Format: functional.
Assay [1] concerns Aspergillus fumigatus. As to the kind of experiment: Antifungal activity against azole-resistant Aspergillus fumigatus isolate T22 harboring Cyp51A TR/L98H mutation assessed as inhibition of fungal growth at 4 mg/l relative to control. Type of assay: functional, organism-based.
In another assay the test system is Aspergillus niger. As to the kind of experiment: Antifungal activity against Aspergillus niger isolate. Type of assay: functional.
In assay [2] the test system is Aspergillus fumigatus. In words: Antifungal activity against azole-resistant Aspergillus fumigatus isolate T18 harboring Cyp51A TR/L98H mutation assessed as inhibition of fungal growth at 4 mg/l relative to control. Type of assay: functional, organism-based.
The subject of assay [3] is Aspergillus fumigatus. In words: Antifungal activity against azole-resistant Aspergillus fumigatus isolate R13 harboring Cyp51A TR/L98H mutant gene assessed as inhibition of fungal growth at 4 mg/l relative to control. Format: functional, organism-based.
Assay [4] deals with Aspergillus fumigatus. In words: Antifungal activity against azole-susceptible Aspergillus fumigatus isolate CM-237 by EUCAST microdilution method. Type of assay: functional.
The test system of assay [5] is Aspergillus fumigatus. In words: Antifungal activity against Aspergillus fumigatus isolates harboring Cyp51A TR/L98H mutation by EUCAST method. Format: functional.
For assay [6], the system named is Aspergillus fumigatus. As to the kind of experiment: Antifungal activity against azole-susceptible Aspergillus fumigatus isolate CM-237 assessed as fungal growth at 4 mg/l relative to control. Format: functional, organism-based.
The subject of assay [7] is Aspergillus fumigatus. As to the kind of experiment: Antifungal activity against azole-resistant Aspergillus fumigatus isolate T11 harboring Cyp51A TR/L98H mutant gene assessed as inhibition of fungal growth at 4 mg/l relative to control. Format: functional, organism-based.
The next assay has as its system Aspergillus lentulus. As to the kind of experiment: Antifungal activity against Aspergillus lentulus isolate. Type of assay: functional.
In assay [8] the test system is Aspergillus fumigatus. As to the kind of experiment: Antifungal activity against azole-susceptible Aspergillus fumigatus isolate CM-237 assessed as fungal growth at 0.5 mg/l relative to control. Type of assay: functional, organism-based.
Assay [9] concerns Aspergillus fumigatus. In words: Antifungal activity against azole-resistant Aspergillus fumigatus isolate T22 harboring Cyp51A TR/L98H mutation assessed as inhibition of fungal growth at 0.5 mg/l relative to control. Type of assay: functional, organism-based.
For assay [10], the system named is Aspergillus fumigatus. In words: Antifungal activity against azole-resistant Aspergillus fumigatus isolate T18 harboring Cyp51A TR/L98H mutation assessed as inhibition of fungal growth at 0.5 mg/l relative to control. Type of assay: functional, organism-based.
The test system of assay [11] is Aspergillus fumigatus. In words: Antifungal activity against azole-resistant Aspergillus fumigatus isolate T11 harboring Cyp51A TR/L98H mutant gene assessed as inhibition of fungal growth at 0.5 mg/l relative to control. Format: functional, organism-based.
In assay [12] the test system is Aspergillus fumigatus. As to the kind of experiment: Antifungal activity against azole-resistant Aspergillus fumigatus isolate R13 harboring Cyp51A TR/L98H mutant gene assessed as inhibition of fungal growth at 0.5 mg/l relative to control. Format: functional, organism-based.
Assay [13] relates to Aspergillus fumigatus. As to the kind of experiment: Antifungal activity against azole-resistant Aspergillus fumigatus isolate T18 harboring Cyp51A TR/L98H mutation assessed as inhibition of fungal growth at 1 mg/l relative to control. Type of assay: functional, organism-based.
The test system of assay [14] is Aspergillus fumigatus. As to the kind of experiment: Antifungal activity against azole-susceptible Aspergillus fumigatus isolate CM-237 assessed as fungal growth at 1 mg/l relative to control. Type of assay: functional, organism-based.
Assay [15] relates to Aspergillus fumigatus. In words: Antifungal activity against azole-resistant Aspergillus fumigatus isolate T22 harboring Cyp51A TR/L98H mutation assessed as inhibition of fungal growth at 1 mg/l relative to control. Format: functional, organism-based.
Assay [16] deals with Aspergillus fumigatus. As to the kind of experiment: Antifungal activity against azole-resistant Aspergillus fumigatus isolate R13 harboring Cyp51A TR/L98H mutant gene assessed as inhibition of fungal growth at 1 mg/l relative to control. Format: functional, organism-based.
The test system of assay [17] is Aspergillus fumigatus. In words: Antifungal activity against azole-resistant Aspergillus fumigatus isolate T11 harboring Cyp51A TR/L98H mutant gene assessed as inhibition of fungal growth at 1 mg/l relative to control. Format: functional, organism-based.

Consider `CCC(C)n1ncn(-c2ccc(N3CCN(c4ccc(OCC5COC(Cn6cncn6)(c6ccc(Cl)cc6Cl)O5)cc4)CC3)cc2)c1=O` (stereo not given) [ITRACONAZOLE], for which the minimal inhibitory concentration (MIC) against Aspergillus nidulans is 1 µg/mL (≈ 1.42 µM); with Aspergillus niger, 2 µg/mL (≈ 2.83 µM); with Aspergillus fumigatus [4], 0.25 µg/mL (≈ 0.354 µM); against Aspergillus fumigatus [5], above 4 µg/mL; against Aspergillus lentulus, 0.5 µg/mL (≈ 0.709 µM). The inhibition entry in the assay on Aspergillus fumigatus [1], in the assay on Aspergillus fumigatus [2] and in the assay on Aspergillus fumigatus [7] was “inactive” in each case. The inhibition result in the assay with Aspergillus fumigatus [3] is “Active”. Moreover, in the assay on Aspergillus fumigatus [6], the result was Active.
As to `CC[C@@H]([C@H](C)O)n1ncn(-c2ccc(N3CCN(c4ccc(OC[C@@H]5CO[C@@](Cn6cncn6)(c6ccc(F)cc6F)C5)cc4)CC3)cc2)c1=O` [POSACONAZOLE], the MIC in the assay on Aspergillus nidulans is 0.5 µg/mL (≈ 0.713 µM); against Aspergillus niger, 0.5 µg/mL (≈ 0.713 µM); with Aspergillus fumigatus [4], 0.06 µg/mL (≈ 0.0856 µM); in the assay with Aspergillus fumigatus [5], 0.25 µg/mL (≈ 0.357 µM); against Aspergillus lentulus it was 0.25 µg/mL (≈ 0.357 µM). In the assay with Aspergillus fumigatus [8], the result was Active. For the same compound, the inhibition entry in the assay with Aspergillus fumigatus [9], with Aspergillus fumigatus [10] and with Aspergillus fumigatus [12] was “Active” in each case. Further, in the assay with Aspergillus fumigatus [11], the inhibition result was “inactive”.
With `C[C@@H](c1ncncc1F)[C@](O)(Cn1cncn1)c1ccc(F)cc1F` [VORICONAZOLE], the MIC was found to be 4 µg/mL (≈ 11.5 µM) against Aspergillus nidulans; 0.5 µg/mL (≈ 1.43 µM) with Aspergillus niger; 0.5 µg/mL (≈ 1.43 µM) in the assay with Aspergillus fumigatus [4]; 2 µg/mL (≈ 5.73 µM) against Aspergillus fumigatus [5]; 4 µg/mL (≈ 11.5 µM) against Aspergillus lentulus. In addition, the result in the assay on Aspergillus fumigatus [13] and with Aspergillus fumigatus [15] was Active. The inhibition entry in the assay with Aspergillus fumigatus [14] and with Aspergillus fumigatus [17] was “Active” each time. Also, the result in the assay with Aspergillus fumigatus [16] was inactive.
